Results from US20210115036A1, “AZAINDOLES AND METHODS OF USE THEREOF” (GOLDFINCH BIO, INC., priority 2017, published 2021).
Where two headings read alike, the source gives them in different places.

Target: T1, human TRPC5 (Homo sapiens, UniProt Q9UL62)
T1 construct: expressed in transfected cells; host or cells: HEK 293
T1 sequence (Q9UL62 1-973): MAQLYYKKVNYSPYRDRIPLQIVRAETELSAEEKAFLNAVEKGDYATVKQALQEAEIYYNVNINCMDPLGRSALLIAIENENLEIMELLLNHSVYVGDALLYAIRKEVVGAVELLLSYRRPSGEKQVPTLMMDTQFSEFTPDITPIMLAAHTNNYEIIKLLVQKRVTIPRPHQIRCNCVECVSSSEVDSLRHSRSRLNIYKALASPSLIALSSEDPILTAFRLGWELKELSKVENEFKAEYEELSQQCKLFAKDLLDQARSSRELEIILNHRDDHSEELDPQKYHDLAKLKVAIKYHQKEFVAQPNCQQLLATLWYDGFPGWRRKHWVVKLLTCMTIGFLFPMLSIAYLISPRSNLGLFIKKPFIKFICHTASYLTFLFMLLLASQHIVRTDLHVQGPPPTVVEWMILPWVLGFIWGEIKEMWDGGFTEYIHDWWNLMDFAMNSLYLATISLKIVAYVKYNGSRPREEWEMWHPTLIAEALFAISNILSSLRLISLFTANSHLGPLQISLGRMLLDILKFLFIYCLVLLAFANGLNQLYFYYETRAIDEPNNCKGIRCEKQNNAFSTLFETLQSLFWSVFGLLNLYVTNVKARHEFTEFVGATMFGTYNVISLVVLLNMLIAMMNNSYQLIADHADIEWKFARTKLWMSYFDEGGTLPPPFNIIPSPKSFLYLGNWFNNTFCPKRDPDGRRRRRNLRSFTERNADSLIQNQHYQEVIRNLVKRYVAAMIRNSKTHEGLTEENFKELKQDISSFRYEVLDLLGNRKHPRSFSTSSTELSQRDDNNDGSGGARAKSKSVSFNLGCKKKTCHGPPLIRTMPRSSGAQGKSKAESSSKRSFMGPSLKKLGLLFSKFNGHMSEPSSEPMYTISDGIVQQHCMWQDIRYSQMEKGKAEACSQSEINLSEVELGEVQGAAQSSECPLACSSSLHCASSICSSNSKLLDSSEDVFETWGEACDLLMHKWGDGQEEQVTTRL
Experiment: Automated patch clamp assay (QPatch), current block after stimulation with rosiglitazone
Assay type: cell-based
Settings: HEK293 cells overexpressing TRPC5, whole cell automated patch
Method: HEK 293 cells expressing human TRPC5 were harvested, re-suspended in serum free medium, and added to the automated platform and used within 2-3 hours. Internal and external physiological solutions were freshly prepared prior to the assay. The external solution contained: 145 mM NaCl, 4 mM KCl, 2 mM CaCl2), 1 mM MgCl2, 10 mM HEPES, 10 mM glucose, pH 7.4 with NaOH and 300 mOsm/L. The internal solution contained 120 mM L-aspartic acid, 120 mM CsOH.H2O, 20 mM CsCl, 2 mM MgCl2, 8.8 mM CaCl2), 10 mM EGTA, 10 mM HEPES, 10 mM Glucose, 0.1 mM GTP and 2 mM Na2ATP; pH 7.2 with CsOH and 290 mOsm/L. The free internal Ca2+ concentration was buffered to 1 μM.
The automated electrophysiological platform QPatch 16 from Sophion (Denmark) was used to carry out the compounds profiling. The series resistance and quality of seals were continuously monitored during the experiments. Data was analyzed using Sophion QPatch assay software 5.6 (Odense). IC50 values were calculated using a least squares regression algorithm (Hill equation).
To monitor the ion currents, a voltage ramp from −100 mV to +100 mV, over 300 ms, was applied every 10 seconds, from a holding potential of −60 mV.
After recording for a minimum of 60 seconds control period, Rosiglitazone (30 uM), was applied to activate the channel.

[1] = 80 mV, 1-substituted 7-azaindoles, read-out: TRPC5 IC50 80 mV
[2] = 100 mV, 1-substituted 7-azaindoles, read-out: TRPC5 IC50 100 mV
[3] = 100 mV, 7-substituted 7-azaindoles, read-out: TRPC5 IC50 100 mV

Structure (SMILES)	IC50 [1] [µM]	IC50 [2] [µM]	IC50 [3] [µM]
CCN(CC)Cc1cc2cccnc2n1Cc1ccccc1	6.24	4.19	–
c1ccc(Cn2c(CN3CCCC3)cc3cccnc32)cc1	17	16.6	–
CN(C)Cc1cc2cccnc2n1Cc1ccccc1	18.3	21.6	–
Cn1nc(C(F)(F)F)cc1Cn1c(C(C)(C)C)cc2cccnc21	19.6	19.1	–
Clc1ccc(Cn2c(CN3CCCC3)cc3cccnc32)cc1	23.6	25.2	–
OCCc1cc2cccnc2n1Cc1ccccc1	> 30	> 30	–
CN(C)CCc1cc2cccnc2n1Cc1ccccc1	> 30	> 30	–
CC(C)(C)c1cc2cccnc2n1Cc1cncc(F)c1	> 30	> 30	–
COCCc1cc2cccnc2n1Cc1ccccc1	> 30	> 30	–
CC(C)(C)c1cc2cccnc2n1Cc1ccc(Cl)cc1C#N	> 30	–	–
COc1cc(Cl)ccc1Cn1c(C(C)(C)C)cc2cccnc21	> 30	–	–
Cc1cc2cccnc2n1Cc1ccc(Cl)cc1	> 30	–	–
OCc1cc2cccnc2n1Cc1ccccc1	> 30	> 30	–
Cc1ncc(Cn2c(C(C)(C)C)cc3cccnc32)cn1	> 30	–	–
CC(C)(C)c1cc2c(OCCCO)ccnc2n1Cc1ccccc1	> 30	> 30	–
CC(C)(C)c1cc2ccc(OCCO)nc2n1Cc1ccccc1	> 30	–	–
Cn1cc(Cn2c(C(C)(C)C)cc3cccnc32)cn1	> 30	> 30	–
CC(C)(C)c1cc2cc(OCCCO)cnc2n1Cc1ccccc1	> 30	> 30	–
CC(C)(C)c1cc2ccc(OCCCO)nc2n1Cc1ccccc1	> 30	–	–
Cc1nn(C)cc1Cn1c(C(C)(C)C)cc2cccnc21	> 30	> 30	–
Cc1noc(C)c1Cn1c(C(C)(C)C)cc2cccnc21	> 30	> 30	–
Cn1cc(Cn2c(C(C)(C)C)cc3cccnc32)c(C(F)(F)F)n1	> 30	> 30	–
CC(C)(C)c1cc2cccnc2n1CC1CCCCC1	> 30	–	–

Structure (SMILES)	IC50 [1] [µM]	IC50 [2] [µM]	IC50 [3] [µM]
CC(C)(C)c1cc2cccnc2n1CC1CCOCC1	> 30	–	–
CN1CCC(Cn2c(C(C)(C)C)cc3cccnc32)CC1	> 30	–	–
CC(C)(C)c1cc2cccnc2n1CC1CCNCC1	> 30	–	–
CC(=O)N1CCC(Cn2c(C(C)(C)C)cc3cccnc32)CC1	> 30	–	–
CC(C)(C)c1cc2cccnc2n1CC1CCN(S(C)(=O)=O)CC1	> 30	–	–
COc1ccc(Cn2cccc3cc(C(C)(C)C)nc2-3)cc1	–	–	5.47
CC(C)(C)c1cc2cccn(Cc3cncc(F)c3)c-2n1	–	–	7.64
Cn1cc(Cn2cccc3cc(C(C)(C)C)nc2-3)cn1	–	–	9.79
Cn1cc(Cn2cccc3cc(C(C)(C)C)nc2-3)c(C(F)(F)F)n1	–	–	10.4
Cn1nc(C(F)(F)F)cc1Cn1cccc2cc(C(C)(C)C)nc1-2	–	–	12.2
Cc1noc(C)c1Cn1cccc2cc(C(C)(C)C)nc1-2	–	–	15.6
Cc1nn(C)cc1Cn1cccc2cc(C(C)(C)C)nc1-2	–	–	17.6
CC(C)(C)c1cc2cccn(Cc3ccncc3)c-2n1	–	–	> 30
CC(C)(C)c1cc2cccnc2n1C[C@H]1CC[C@H](C)CC1 [drawing 112]	> 30	–	–
CC(C)(C)c1cc2cccnc2n1C[C@H]1CC[C@H](C)CC1 [drawing 113]	–	> 30	–
CC(C)(C)c1cc2cccn(Cc3ccc(Cl)cc3)c-2n1 [drawing 125]	–	–	6.02
CC(C)(C)c1cc2cccn(Cc3ccc(Cl)cc3)c-2n1 [drawing 127]	–	–	8.1
COc1cccc(Cn2cccc3cc(C(C)(C)C)nc2-3)c1 [drawing 128]	–	–	8.57
COc1cccc(Cn2cccc3cc(C(C)(C)C)nc2-3)c1 [drawing 130]	–	–	10.2
CC(C)(C)c1cc2cccn(Cc3cccnc3)c-2n1 [drawing 133]	–	–	14
CC(C)(C)c1cc2cccn(Cc3cccnc3)c-2n1 [drawing 134]	–	–	14.4
CC(C)(C)c1cc2cccn(C[C@H]3CC[C@H](C)CC3)c-2n1 [drawing 137]	–	–	22.2
CC(C)(C)c1cc2cccn(C[C@H]3CC[C@H](C)CC3)c-2n1 [drawing 138]	–	–	24.5

Continued, values first:

IC50 [1] [µM]	IC50 [2] [µM]	IC50 [3] [µM]	Structure (SMILES)
13.8	8.52	–	COC(C)(C)Cc1cc2cccnc2n1Cc1ccccc1
> 30	–	–	CC(C)(C)c1cc2cccnc2n1Cc1ccc(Cl)cc1
> 30	> 30	–	CC(C)(C)Cc1cc2cccnc2n1Cc1ccccc1
> 30	> 30	–	C[C@@H](c1ccccc1)n1c(C(C)(C)C)cc2cccnc21
> 30	–	–	CC(c1ccccc1)n1c(C(C)(C)C)cc2cccnc21 (stereo not drawn)
> 30	> 30	–	C[C@H](c1ccccc1)n1c(C(C)(C)C)cc2cccnc21
> 30	–	–	Cc1ccnc2c1cc(C(C)(C)C)n2Cc1ccccc1
> 30	> 30	–	COc1ccc(Cn2c(C(C)(C)C)cc3cccnc32)cc1
> 30	–	–	Cc1ccc2cc(C(C)(C)C)n(Cc3ccccc3)c2n1
> 30	> 30	–	COc1cccc(Cn2c(C(C)(C)C)cc3cccnc32)c1
> 30	> 30	–	CC(C)(O)Cc1cc2cccnc2n1Cc1ccccc1
> 30	> 30	–	CC(C)(C)c1cc2cccnc2n1Cc1ccncc1
> 30	> 30	–	COC(C)(C)c1cc2cccnc2n1Cc1ccccc1
> 30	> 30	–	CC(C)(C)c1cc2cccnc2n1Cc1cccnc1
> 30	–	–	Cc1cc2cccnc2n1Cc1ccccc1
> 30	–	–	Cc1ccc2cc(C(C)(C)C)n(C(=O)c3ccccc3)c2n1
> 30	–	–	CC(C)(C)c1cc2cccnc2n1Cc1ccc(Cl)cn1
> 30	–	–	CC(C)(C)c1cc2cccnc2n1CCc1ccccc1
> 30	–	–	CC(C)(C)c1cc2cccnc2n1CCOc1ccccc1
> 30	–	–	CC(C)(C)c1cc2cccnc2n1CCCc1ccccc1
> 30	–	–	CC(C)(C)c1cc2cccnc2n1CC1CCN(Cc2ccccc2)CC1
3.51	–	–	CC(C)(C)c1cc2cccnc2n1Cc1ccccc1 [drawing 63]
7.07	–	–	CC(C)(C)c1cc2cccnc2n1Cc1ccccc1 [drawing 65]
> 30	–	–	CC(C)Cc1cc2cccnc2n1Cc1ccccc1 [drawing 72]
–	> 30	–	CC(C)Cc1cc2cccnc2n1Cc1ccccc1 [drawing 73]
> 30	–	–	CC(C)(O)c1cc2cccnc2n1Cc1ccccc1 [drawing 80]
–	> 30	–	CC(C)(O)c1cc2cccnc2n1Cc1ccccc1 [drawing 81]
